Test results reported in paper PMC7947852, “Identification and Characterization of Chalcone Isomerase Genes Involved in Flavonoid Production in Dracaena cambodiana” (Frontiers in Plant Science, 2021).

Target: T1, DcCHI1 (Dracaena cambodiana, UniProt A0A8A5KFS9)
T1 construct: gene CHI1
T1 sequence (A0A8A5KFS9 1-219): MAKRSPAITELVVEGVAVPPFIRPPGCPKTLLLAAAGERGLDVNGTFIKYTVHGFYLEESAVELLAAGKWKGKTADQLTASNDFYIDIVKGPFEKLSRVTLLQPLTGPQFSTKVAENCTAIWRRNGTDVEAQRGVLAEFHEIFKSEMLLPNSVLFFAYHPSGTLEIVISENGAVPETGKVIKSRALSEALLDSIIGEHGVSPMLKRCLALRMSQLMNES
Test: HPLC of reaction product
Assay type: biochemical
Details: 100 mM Tris-HCl pH 7.6, 30 °C, 2 min; 5 µl of 5 mM substrate in 200 µl

| Structure (SMILES) | HPLC of reaction product |
| --- | --- |
| O=C(/C=C/c1ccc(O)cc1)c1c(O)cc(O)cc1O [naringenin chalcone] | recombinant DcCHI1 could catalyze the formation of naringenin with naringenin chalcone as the substrate |
| O=C1C[C@@H](c2ccc(O)cc2)Oc2cc(O)cc(O)c21 [naringenin] | recombinant DcCHI1 could catalyze the formation of naringenin with naringenin chalcone as the substrate |
